Assays:
[1] = tested on: d-galactosamine-induced acute hepatitis; test: d-galactosamine-induced acute hepatitis in rats, serum GOT/GPT (Embodiment 5, guanine positive control); assay type: in vivo; settings: for reduction of sGOT value / reduction of sGPT value: vs d-galactosamine group
Description: Male rats are randomly divided, with five rats in the individual group and 200±20 g of each. In the study, normal and d-galactosamine (Gal) groups are orally given with distilled water, testing groups are orally given with test articles (JM or BMEC-1 from different processes) dissolving in distilled water, positive control group is orally given with guanine (300 mg/kg), and each administration dosage is 10 ml/kg.
Half-hour later, each group is i.p. with d-galactosamine (500 mg/kg) except the normal group. Four and eight hours after d-galactosamine injection, the same dosages are administrated again. Twenty-four hours after d-galactosamine injection, the animals are sacrificed for collecting the blood, and then the serum GOT (Glutamyl Oxaloacetic Transaminase) and GPT (Glutamyl Pyrubic Transaminase) activities are measured by using HITACHI auto-analyzing system (model 7050) with UV method.

[2] = tested on: d-galactosamine-induced acute hepatitis; test: d-galactosamine-induced acute hepatitis in rats, serum GOT/GPT (Embodiment 6, silymarin and guanine positive controls); assay type: in vivo
Description: (§1) Rats are randomly divided, with six rats in each group. The animals fasted for 24 hr before the experiment. In the study, normal and d-galactosamine (Gal) groups are orally given with distilled water, testing groups are orally given with 1 g/kg of the test articles (JM, BMEC-1 or BMEC-101 from different processes) dissolving in distilled water, and rats in positive control group are orally administrated with silymarin (200 mg/kg) and guanine (300 mg/kg). One hour later, each group is i.p. with d-galactosamine (400 mg/kg), and the normal group is i.p. with saline. Four and eight hours after d-galactosamine injection, the same dosages are administrated again. Twenty-four hours after d-galactosamine injection, the animals are anesthetized with ether, and the blood is collected from the carotid artery. The serum is separated and stands still at room temperature for 1 hr, and centrifuged (Backman centrifuge, GS-6R, 3000 rpm) for 10 mins. The activities of rat serum GOT and GPT are measured.

[3] = tested on: d-galactosamine-induced liver damage; test: Histopathological sections of liver of d-galactosamine-induced acute hepatitis animals; assay type: in vivo, rats; settings: 300 mg/kg
Description: as §1
After blood is collected, the liver of the acute hepatitis animal induced by d-galactosamine is separated, and liver tissue around 0.5 cm^3 in each folium is taken out. Those tissues are fixed in 10% neutral formalin for 1 to 2 weeks, then dehydrated and paraffin embedded by the dehydration and wax-exudation device, and cut into 4 to 5 μm liver slices by rotary microtome. The slices are stained with Haematoxylin and Eosin, and the pathological patterns are observed under an optical microscope.

[4] = Table 2, oral 300 × 3 mg/kg, Gal 500 mg/kg i.p., serum 24 h after Gal, mean ± SEM, n = 5
[5] = Table 2 experiment, positive control, oral 300 × 3 mg/kg
[6] = Table 3, oral 300 × 3 mg/kg, Gal 500 mg/kg i.p., mean ± SEM, n = 5
[7] = Table 3 experiment, oral 300×3 mg/kg
[8] = Table 4 Batch 1, oral 300 × 3 mg/kg, Gal 500 mg/kg i.p., mean ± SEM, n = 5
[9] = Table 4 Batch 1, oral 300×3 mg/kg
[10] = Table 4 Batch 2, oral 300 × 3 mg/kg, Gal 500 mg/kg i.p., mean ± SEM, n = 5
[11] = Table 4 Batch 2, oral 300×3 mg/kg
[12] = Table 5, oral 300 × 3 mg/kg, Gal 400 mg/kg i.p., mean ± SEM, n = 6
[13] = Table 5 experiment, oral 300×3 mg/kg, vs d-galactosamine group

## Nc1nc2nc[nH]c2c(=O)[nH]1 [guanine]
[1]; [4]
  sGOT: 980.0 ± 92.5 U/L
  sGPT: 589.6 ± 54.6 U/L
[1]; [5]
  reduction of sGOT value: 24%
  reduction of sGPT value: 32%
[1]; [6]
  sGOT: 954.8 ± 122.1 U/L
  sGPT: 514.4 ± 78.2 U/L
[1]; [7]
  reduction of sGOT value: 45%
  reduction of sGPT value: 59%
[1]; [8]
  sGOT: 1055.6 ± 150.1 U/L
  sGPT: 699.2 ± 103.6 U/L
[1]; [9]
  reduction of sGOT value: 49%
  reduction of sGPT value: 41%
[1]; [10]
  GOT: 1080.0 ± 181.7 U/L
  GPT: 584.0 ± 114.9 U/L
[1]; [11]
  reduction of sGOT value: 42%
  reduction of sGPT value: 49%
[2]; [12]
  sGOT: 160.7 ± 33.5 U/L
  sGPT: 55.1 ± 19.2 U/L
[2]; [13]
  reduction of sGOT value: 70%
  reduction of sGPT value: 79%
[3]; liver fibrosis grade
  Fibrosis: 1
[3]; liver histopathology grade
  Balloon degeneration: 0
  Bile duct proliferation: 1
  Fatty change: 1
  Inflammation: 1
  Mitosis: 0
  Necrosis: 0

Source: patent US7799353B2, “Pharmaceutical mixture for hepatitis treatment and its preparation method” (Industrial Technology Research Institute, priority 2003, dated 2010)
